What was measured:
Assay in all cases: relative viability (nuclei count vs DMSO), 5 days (fraction); higher = more cells survive
NCI-H1648 = tested on: NCI-H1648
In short: (§1)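 Lung cancer cell lines were seeded in 1536-well plates and dosed by pin tool the next day, with either a single drug or a fixed anchor-drug dose combined with five library-drug doses (not always all listed) spaced in √10 steps. Five days later, one step fixed the cells and stained their nuclei (final 0.05% Triton X-100, 1% formaldehyde, 1 ug/ml Hoechst), and nuclei were counted on 4× images. Relative viability is the nuclei count in treated wells divided by the count in vehicle wells, and each value is the median of duplicate plates.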

HARA = tested on: HARA
In short: as §1

PC-14 = tested on: PC-14
In short: as §1

NCI-H460 = tested on: NCI-H460
In short: as §1

HCC-366 = tested on: HCC-366
In short: as §1

HCC-15 = tested on: HCC-15
In short: as §1

A-427 = tested on: A-427
In short: as §1

NCI-H2023 = tested on: NCI-H2023
In short: as §1

COR-L23 = tested on: COR-L23
In short: as §1

NCI-H1915 = tested on: NCI-H1915
In short: as §1

NCI-H727 = tested on: NCI-H727
In short: as §1

HCC-78 = tested on: HCC-78
In short: as §1

COR-L 105 = tested on: COR-L 105
In short: as §1

NCI-H3122 = tested on: NCI-H3122
In short: as §1

NCI-H1437 = tested on: NCI-H1437
In short: as §1

LK-2 = tested on: LK-2
In short: as §1

NCI-H1666 = tested on: NCI-H1666
In short: as §1

NCI-H2405 = tested on: NCI-H2405
In short: as §1

NCI-H1944 = tested on: NCI-H1944
In short: as §1

HCC-44 = tested on: HCC-44
In short: as §1

LCLC-97TM1 = tested on: LCLC-97TM1
In short: as §1

201T = tested on: 201T
In short: as §1

NCI-H1975 = tested on: NCI-H1975
In short: as §1

Nc1cccc2c1CN(C1CCC(=O)NC1=O)C2=O (centres undefined) [Lenalidomide] + CC(=O)c1c(C)c2cnc(Nc3ccc(N4CCNCC4)cn3)nc2n(C2CCCC2)c1=O [Palbociclib] (partner 0.5 µM)
relative viability (NCI-H1648; first compound 0.253 µM): 0.304
relative viability (NCI-H1648; first compound 2.53 µM): 0.282
relative viability (NCI-H1648; first compound 8 µM): 0.253
relative viability (HARA; first compound 0.253 µM): 0.253
relative viability (HARA; first compound 2.53 µM): 0.293
relative viability (HARA; first compound 8 µM): 0.253
relative viability (PC-14; first compound 0.253 µM): 0.541
relative viability (PC-14; first compound 0.8 µM): 0.533
relative viability (PC-14; first compound 2.53 µM): 0.6
relative viability (PC-14; first compound 8 µM): 0.685
relative viability (NCI-H460; first compound 0.253 µM): 0.179
relative viability (NCI-H460; first compound 0.8 µM): 0.0987
relative viability (NCI-H460; first compound 2.53 µM): 0.197
relative viability (NCI-H460; first compound 8 µM): 0.142
relative viability (HCC-366; first compound 0.253 µM): 0.437
relative viability (HCC-366; first compound 0.8 µM): 0.389
relative viability (HCC-366; first compound 2.53 µM): 0.505
relative viability (HCC-366; first compound 8 µM): 0.353
relative viability (HCC-15; first compound 0.253 µM): 0.685
relative viability (HCC-15; first compound 0.8 µM): 0.683
relative viability (HCC-15; first compound 2.53 µM): 0.904
relative viability (HCC-15; first compound 8 µM): 0.708
relative viability (A-427; first compound 0.253 µM): 0.529
relative viability (A-427; first compound 0.8 µM): 0.49
relative viability (A-427; first compound 2.53 µM): 0.548
relative viability (A-427; first compound 8 µM): 0.529
relative viability (NCI-H2023; first compound 0.253 µM): 0.405
relative viability (NCI-H2023; first compound 0.8 µM): 0.419
relative viability (NCI-H2023; first compound 2.53 µM): 0.403
relative viability (NCI-H2023; first compound 8 µM): 0.45
relative viability (COR-L23; first compound 0.253 µM): 0.342
relative viability (COR-L23; first compound 0.8 µM): 0.34
relative viability (COR-L23; first compound 2.53 µM): 0.308
relative viability (COR-L23; first compound 8 µM): 0.348
relative viability (NCI-H1915; first compound 0.253 µM): 0.549
relative viability (NCI-H1915; first compound 0.8 µM): 0.554
relative viability (NCI-H1915; first compound 2.53 µM): 0.578
relative viability (NCI-H1915; first compound 8 µM): 0.486
relative viability (NCI-H727; first compound 0.253 µM): 0.697
relative viability (NCI-H727; first compound 0.8 µM): 0.684
relative viability (NCI-H727; first compound 2.53 µM): 0.64
relative viability (NCI-H727; first compound 8 µM): 0.631
relative viability (HCC-78; first compound 0.253 µM): 0.48
relative viability (HCC-78; first compound 0.8 µM): 0.416
relative viability (HCC-78; first compound 2.53 µM): 0.463
relative viability (HCC-78; first compound 8 µM): 0.47
relative viability (COR-L 105; first compound 0.253 µM): 0.394
relative viability (COR-L 105; first compound 0.8 µM): 0.412
relative viability (COR-L 105; first compound 2.53 µM): 0.409
relative viability (COR-L 105; first compound 8 µM): 0.413
relative viability (NCI-H3122; first compound 0.253 µM): 0.178
relative viability (NCI-H3122; first compound 0.8 µM): 0.213
relative viability (NCI-H3122; first compound 2.53 µM): 0.232
relative viability (NCI-H3122; first compound 8 µM): 0.195
relative viability (NCI-H1437; first compound 0.253 µM): 0.331
relative viability (NCI-H1437; first compound 0.8 µM): 0.246
relative viability (NCI-H1437; first compound 2.53 µM): 0.359
relative viability (NCI-H1437; first compound 8 µM): 0.353
relative viability (LK-2; first compound 0.253 µM): 0.575
relative viability (LK-2; first compound 0.8 µM): 0.734
relative viability (LK-2; first compound 2.53 µM): 0.845
relative viability (LK-2; first compound 8 µM): 0.649
relative viability (NCI-H1666; first compound 0.253 µM): 0.647
relative viability (NCI-H1666; first compound 0.8 µM): 0.584
relative viability (NCI-H1666; first compound 2.53 µM): 0.646
relative viability (NCI-H1666; first compound 8 µM): 0.642
relative viability (NCI-H2405; first compound 0.253 µM): 0.513
relative viability (NCI-H2405; first compound 0.8 µM): 0.529
relative viability (NCI-H2405; first compound 2.53 µM): 0.524
relative viability (NCI-H2405; first compound 8 µM): 0.45
relative viability (NCI-H1944; first compound 0.253 µM): 0.364
relative viability (NCI-H1944; first compound 2.53 µM): 0.342
relative viability (NCI-H1944; first compound 8 µM): 0.27
relative viability (HCC-44; first compound 0.253 µM): 0.965
relative viability (HCC-44; first compound 0.8 µM): 0.785
relative viability (HCC-44; first compound 2.53 µM): 0.972
relative viability (HCC-44; first compound 8 µM): 0.907
relative viability (LCLC-97TM1; first compound 0.253 µM): 0.229
relative viability (LCLC-97TM1; first compound 0.8 µM): 0.185
relative viability (LCLC-97TM1; first compound 2.53 µM): 0.209
relative viability (LCLC-97TM1; first compound 8 µM): 0.212
relative viability (201T; first compound 0.253 µM): 0.394
relative viability (201T; first compound 0.8 µM): 0.359
relative viability (201T; first compound 2.53 µM): 0.38
relative viability (201T; first compound 8 µM): 0.351
relative viability (NCI-H1975; first compound 0.253 µM): 0.591
relative viability (NCI-H1975; first compound 0.8 µM): 0.312
relative viability (NCI-H1975; first compound 2.53 µM): 0.711
relative viability (NCI-H1975; first compound 8 µM): 0.399

Source: the supplement of paper PMC10307832
